Measured values reported in ChEMBL document CHEMBL6078696, “Nanomolar activity of coumarin-3-thiosemicarbazones targeting Trypanosoma cruzi cruzain and the T. brucei cathepsin L-like protease” (Eur J Med Chem, 2025).

Tests used:
Trypanosoma brucei [1] = assay: Antitrypanosomal activity against Trypanosoma brucei trypomastigotes assessed as parasite growth inhibition at 50 uM incubated for 72 hrs by resazurin dye based assay relative to control; format: functional
[2] = biological target: Cruzipain (Trypanosoma cruzi) (UniProt P25779); assay: Inhibition of recombinant Trypanosoma cruzi CRZ using Z-Phe-Arg-aminomethylcoumarin as substrate at 50 uM preincubated for 10 mins followed by substrate addition by fluorimetry relative to control
Chain of Cruzipain (Trypanosoma cruzi) (P25779 123-467 limits assumed): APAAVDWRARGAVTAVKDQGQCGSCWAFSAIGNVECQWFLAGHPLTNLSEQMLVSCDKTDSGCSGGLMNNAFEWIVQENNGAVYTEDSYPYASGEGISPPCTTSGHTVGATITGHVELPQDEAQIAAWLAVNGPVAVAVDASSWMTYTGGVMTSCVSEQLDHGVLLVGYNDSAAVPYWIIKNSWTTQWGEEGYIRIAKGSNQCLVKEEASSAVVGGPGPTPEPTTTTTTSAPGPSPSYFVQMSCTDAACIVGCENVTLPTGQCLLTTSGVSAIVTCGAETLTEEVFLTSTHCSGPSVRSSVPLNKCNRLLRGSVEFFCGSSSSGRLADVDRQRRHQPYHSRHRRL

Trypanosoma cruzi [3] = assay: Antitrypanosomal activity against intracellular Trypanosoma cruzi amastigotes infected in mouse C2C12 cells at 10 uM incubated for 48 hrs by DAPI staining based analysis relative to control; format: functional
Trypanosoma brucei [4] = assay: Inhibition of recombinant Trypanosoma brucei CATL using Z-Phe-Arg-aminomethylcoumarin as substrate at 50 uM preincubated for 10 mins followed by substrate addition by fluorimetry relative to control
[5] = Cytotoxicity against HEK293 cells at 50 uM incubated for 48 hrs by resazurin reduction assay relative to control; format: toxicity, cell-based; conditions: human, read-out: INH
[6] = Cytotoxicity against mouse C2C12 cells at 10 uM relative to control; format: toxicity, cell-based; conditions: read-out: INH
[7] = Cytotoxicity against HEK293 cells incubated for 48 hrs by resazurin reduction assay; format: toxicity, cell-based; conditions: human
Cruzipain [8] = biological target: T1, Cruzipain (Trypanosoma cruzi, UniProt P25779); assay: Inhibition of recombinant Trypanosoma cruzi CRZ using Z-Phe-Arg-aminomethylcoumarin as substrate preincubated for 10 mins followed by substrate addition by fluorimetry
T1 sequence (P25779 whole entry): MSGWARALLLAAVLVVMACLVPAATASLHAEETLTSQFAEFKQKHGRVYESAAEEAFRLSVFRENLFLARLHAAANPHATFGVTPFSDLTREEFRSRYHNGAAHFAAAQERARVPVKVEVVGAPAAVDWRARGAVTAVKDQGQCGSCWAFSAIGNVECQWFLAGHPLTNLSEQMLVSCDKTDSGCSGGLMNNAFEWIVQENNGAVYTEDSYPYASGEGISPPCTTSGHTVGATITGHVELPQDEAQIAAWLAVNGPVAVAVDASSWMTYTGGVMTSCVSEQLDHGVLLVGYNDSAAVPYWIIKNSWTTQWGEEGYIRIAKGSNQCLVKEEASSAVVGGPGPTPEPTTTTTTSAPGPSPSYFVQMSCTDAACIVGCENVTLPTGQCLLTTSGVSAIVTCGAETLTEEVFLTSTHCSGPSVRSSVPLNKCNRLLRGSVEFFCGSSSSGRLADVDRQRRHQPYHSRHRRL

[9] = biological target: Cruzipain (Trypanosoma cruzi) (UniProt P25779); assay: Potency index, ratio of FN-27 IC50 to test compound IC50 recombinant Trypanosoma cruzi CRZ
[10] = Inhibition of recombinant Trypanosoma brucei CATL using Z-Phe-Arg-aminomethylcoumarin as substrate preincubated for 10 mins followed by substrate addition by fluorimetry
Trypanosoma brucei [11] = assay: Potency index, ratio of FN-27 IC50 to test compound IC50 recombinant Trypanosoma brucei CATL
[12] = Selectivity index, ratio of CC50 for cytotoxicity against HEK293 cells to EC50 for Trypanosoma brucei trypomastigotes; format: toxicity, cell-based; conditions: human, read-out: Ratio CC50/EC50
Trypanosoma brucei [13] = assay: Antitrypanosomal activity against Trypanosoma brucei trypomastigotes assessed as parasite growth inhibition incubated for 72 hrs by resazurin dye based assay; format: functional, organism-based
Trypanosoma cruzi [14] = assay: Antitrypanosomal activity against Trypanosoma cruzi amastigotes infected in cell model; format: functional, organism-based
Cruzipain [15] = biological target: T1, Cruzipain; assay: Inhibition of Trypanosoma cruzi CRZ
[16] = Inhibition of Trypanosoma brucei CATL

Compound | inhibition [2] [%] | inhibition (Trypanosoma brucei [4]) [%] | inhibition at 50 µM (Trypanosoma brucei [1]) [%] | inhibition at 10 µM (Trypanosoma cruzi [3]) [%] | cytotoxicity at 48 h, 50 µM [5] [%] | cytotoxicity at 10 µM [6] [%] | other results
O=C(Cn1ccnc1[N+](=O)[O-])NCc1ccccc1 [BENZNIDAZOLE] |  |  |  | 77 |  | 0 | 
COc1ccc2cc(C(=O)NCc3ccccc3)c(=O)oc2c1 |  |  | 45 | 21 | 1 | 0 | 
CC(C)C[C@H](NC(=O)[C@H]1O[C@@H]1C(=O)O)C(=O)NCCCCN=C(N)N |  | 99 |  |  |  |  | 
COc1cc(OC)c2cc(C(=O)NCc3ccccc3)c(=O)oc2c1 |  |  | 3 | 17 | 23 | 0 | 
N=C(N)c1ccc(OCCCCCOc2ccc(C(=N)N)cc2)cc1 [PENTAMIDINE] |  |  | 100 |  |  |  | 
COc1ccc2cc(C(=O)NCCc3c[nH]c4ccccc34)c(=O)oc2c1 |  |  | 59 | 27 | 81 | 0 | CC50 at 48 h [7]: 32.1 µM
CCN(CC)c1ccc2cc(/C(C)=N/NC(N)=S)c(=O)oc2c1 | 30 | 77 | 56 | 44 | 80 | 11 | IC50 (Cruzipain [8]): 0.046 µM; CC50 at 48 h [7]: 42.7 µM
C/C(=N\NC(N)=S)c1cc2ccc(C)cc2oc1=O | 98 | 97 | 23 | 52 | 10 | 0 | Ratio IC50 [9]: 72; IC50 [10]: 0.022 µM; IC50 (Cruzipain [8]): 0.2 µM; Ratio IC50 (Trypanosoma brucei [11]): 92; CC50 at 48 h [7]: 114 µM
O=C(c1cc2ccccc2oc1=O)N1CCN(c2ccccc2)CC1 | 48 | 34 | 17 | 8 | 11 | 0 | 
C/C(=N\NC(N)=S)c1cc2ccccc2oc1=O | 97 | 88 | 40 | 49 | 11 | 0 | IC50 [10]: 0.073 µM; IC50 (Cruzipain [8]): 0.068 µM
C/C(=N\NC(N)=S)c1cc2cc(Br)ccc2oc1=O | 92 | 87 | 71 | 57 | 13 | 12 | IC50 [10]: 0.698 µM; IC50 (Cruzipain [8]): 0.145 µM; selectivity ratio [12]: ~1.2; CC50 at 48 h [7]: 52.3 µM; EC50 (Trypanosoma brucei [13]): 43.6 µM
COc1cccc2cc(/C(C)=N/NC(N)=S)c(=O)oc12 |  |  |  |  |  |  | EC50 (Trypanosoma cruzi [14]): 5.5 µM; IC50 (Cruzipain [15]): 14.4 µM; IC50 [16]: 2 µM
CC(C)C[C@H](NC(=O)[C@H](Cc1ccccc1)NC(=O)c1cnccn1)B(O)O [BORTEZOMIB] |  |  |  |  | 100 |  | 
O=C(c1cc2cc(Cl)cc(Cl)c2oc1=O)N1CCN(c2ccccc2)CC1 | 6 | 12 | 24 | 25 | 12 | 5 | 
COc1cc(OC)c2cc(C(=O)N3CCN(c4ccccc4)CC3)c(=O)oc2c1 | 3 | 24 | 15 | 2 | 18 | 0 | 

Second part, led by results:

inhibition [2] [%] | inhibition (Trypanosoma brucei [4]) [%] | Compound | inhibition at 50 µM (Trypanosoma brucei [1]) [%] | inhibition at 10 µM (Trypanosoma cruzi [3]) [%] | cytotoxicity at 48 h, 50 µM [5] [%] | cytotoxicity at 10 µM [6] [%] | other results
9 | 17 | O=C(Nc1ccccc1)c1cc2ccccc2oc1=O | 52 | 3 | 0 | 1 | 
2 | 19 | O=C(c1cc2cc(I)ccc2oc1=O)N1CCN(c2ccccc2)CC1 | 12 | 5 | 13 | 0 | 
22 | 9 | O=C(NCCc1c[nH]c2ccccc12)c1cc2cc(Cl)cc(Cl)c2oc1=O | 44 | 23 | 17 | 0 | 
7 | 18 | O=C(NCCc1c[nH]c2ccccc12)c1cc2cc(I)ccc2oc1=O | 39 | 7 | 41 | 1 | 
25 | 15 | COc1cc(OC)c2cc(C(=O)NCCc3c[nH]c4ccccc34)c(=O)oc2c1 | 43 | 13 | 31 | 0 | 
1 | 7 | O=C(NCc1ccccc1)c1cc2ccccc2oc1=O | 38 | 6 | 3 | 10 | 
5 | 29 | COc1ccc2cc(C(=O)N3CCN(c4ccccc4)CC3)c(=O)oc2c1 | 43 | 27 | 11 | 1 | 
10 | 25 | O=C(NCCc1c[nH]c2ccccc12)c1cc2ccccc2oc1=O | 63 | 24 | 76 | 16 | CC50 at 48 h [7]: 19.6 µM
